Measurements from US6339079B1, “Steroid sulfamates, method for the production and use thereof” (id pharma GmbH, priority 1997, dated 2002).

Experiments:
[1] = molecular target: T1, steroid sulfatase (Homo sapiens, UniProt P08842); settings: found by M. J. Reed et al.; cited from earlier work
T1 sequence (P08842 22-583): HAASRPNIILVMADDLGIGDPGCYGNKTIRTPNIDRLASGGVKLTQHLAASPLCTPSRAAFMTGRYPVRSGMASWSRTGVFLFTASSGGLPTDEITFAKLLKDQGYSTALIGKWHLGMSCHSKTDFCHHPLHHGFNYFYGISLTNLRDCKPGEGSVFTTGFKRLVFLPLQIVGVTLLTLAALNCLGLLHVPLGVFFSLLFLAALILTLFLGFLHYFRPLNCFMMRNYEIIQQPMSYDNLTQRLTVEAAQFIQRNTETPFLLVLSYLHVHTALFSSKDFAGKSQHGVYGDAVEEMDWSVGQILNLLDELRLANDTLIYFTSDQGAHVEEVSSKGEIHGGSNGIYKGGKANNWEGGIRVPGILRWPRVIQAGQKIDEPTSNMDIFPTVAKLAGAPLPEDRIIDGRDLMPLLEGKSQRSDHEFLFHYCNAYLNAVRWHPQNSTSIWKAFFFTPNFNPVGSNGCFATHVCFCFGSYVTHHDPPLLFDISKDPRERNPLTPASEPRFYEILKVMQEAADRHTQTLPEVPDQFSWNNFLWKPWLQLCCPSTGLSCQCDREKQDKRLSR

[2] = estrogenic effectiveness in vivo; settings: applied orally in vivo

SMILES	sulfatase-inhibiting activity [1]	estrogenic effectiveness compared with estradiol-3-sulfamate ([2]; relative to estradiol-3-sulfamate)	estrogenic effectiveness compared with estriol ([2]; relative to estriol)
C[C@]12CC[C@@H]3c4ccc(OS(N)(=O)=O)cc4CC[C@H]3[C@@H]1CCC2=O [estrone-3-sulfamate]	strong sulfatase-inhibiting activity		
C[C@]12CC[C@@H]3c4ccc(OS(N)(=O)=O)cc4CC[C@H]3[C@@H]1C[C@@H](Br)[C@@H]2O [16α-bromoestradiol-3-sulfamate, 16α-Bromo-3-sulfamoyloxy-13β-methyl-1,3,5(10)-gonatrien-17β-ol]		three times more effective	five times more effective
C[C@]12CC[C@@H]3c4ccc(OS(N)(=O)=O)cc4CC[C@H]3[C@@H]1CC[C@@H]2O [estradiol-3-sulfamate]	strong sulfatase-inhibiting activity		
